Patent US20110130447A1, “Production of hop extracts having oestrogenic and antiproliferative bioactivity” (priority 2004, published 2011)

Experiments:
[1] = Milligan et al., 2002; cited from earlier work
[2] = cited from earlier work; for oestrogenic activity: Milligan et al., 1999, 2000
[3] = tested on: oestrogen-responsive MCF-7 breast cancer cells; experiment: Bioassay of 8-prenylnaringenin-induced proliferation of MCF-7 cells and its inhibition by xanthohumol; format: cell-based
Procedure: A bioassay was developed to probe proliferation of oestrogen-dependent cancer cells by 8-prenylnaringenin and to determine concentrations of xanthohumol required to inhibit this 8-prenylnaringenin-induced proliferation. Thereto, oestrogen-responsive MCF-7 breast cancer cells were grown in 96-well plates in the presence of a fixed and growth-stimulatory concentration of 8-prenylnaringenin and varying concentrations of xanthohumol. For each concentration of 8-prenylnaringenin (1 nM, 10 nM, and 100 nM), the concentrations of xanthohumol were 0 μM, 0.1 μM, 1 μM, 5 μM, 10 μM and 25 μM, respectively.

cyclooxygenase-2 = target: T1, cyclooxygenase-2 (Homo sapiens, UniProt P35354); conditions: Gerhauser et al., 2002; cited from earlier work
T1 sequence (P35354 18-604): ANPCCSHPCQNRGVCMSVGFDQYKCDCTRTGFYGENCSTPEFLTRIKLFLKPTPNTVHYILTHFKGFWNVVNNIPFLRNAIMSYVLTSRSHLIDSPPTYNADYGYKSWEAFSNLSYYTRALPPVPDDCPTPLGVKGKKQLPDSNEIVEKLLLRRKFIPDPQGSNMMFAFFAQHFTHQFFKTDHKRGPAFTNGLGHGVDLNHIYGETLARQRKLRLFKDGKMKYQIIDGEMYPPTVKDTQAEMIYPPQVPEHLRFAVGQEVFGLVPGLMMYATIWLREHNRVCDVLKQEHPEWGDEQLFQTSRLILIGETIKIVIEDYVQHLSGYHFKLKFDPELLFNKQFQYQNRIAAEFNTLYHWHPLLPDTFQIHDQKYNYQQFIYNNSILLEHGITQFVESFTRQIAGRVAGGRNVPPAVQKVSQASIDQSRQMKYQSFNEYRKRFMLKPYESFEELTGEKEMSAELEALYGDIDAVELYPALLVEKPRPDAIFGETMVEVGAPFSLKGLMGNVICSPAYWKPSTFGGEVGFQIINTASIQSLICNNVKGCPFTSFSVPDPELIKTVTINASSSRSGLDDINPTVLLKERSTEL

cyclooxygenase-1 = target: T2, cyclooxygenase-1 (Ovis aries, UniProt P05979); conditions: Gerhauser et al., 2002; cited from earlier work
T2 sequence (P05979 25-600): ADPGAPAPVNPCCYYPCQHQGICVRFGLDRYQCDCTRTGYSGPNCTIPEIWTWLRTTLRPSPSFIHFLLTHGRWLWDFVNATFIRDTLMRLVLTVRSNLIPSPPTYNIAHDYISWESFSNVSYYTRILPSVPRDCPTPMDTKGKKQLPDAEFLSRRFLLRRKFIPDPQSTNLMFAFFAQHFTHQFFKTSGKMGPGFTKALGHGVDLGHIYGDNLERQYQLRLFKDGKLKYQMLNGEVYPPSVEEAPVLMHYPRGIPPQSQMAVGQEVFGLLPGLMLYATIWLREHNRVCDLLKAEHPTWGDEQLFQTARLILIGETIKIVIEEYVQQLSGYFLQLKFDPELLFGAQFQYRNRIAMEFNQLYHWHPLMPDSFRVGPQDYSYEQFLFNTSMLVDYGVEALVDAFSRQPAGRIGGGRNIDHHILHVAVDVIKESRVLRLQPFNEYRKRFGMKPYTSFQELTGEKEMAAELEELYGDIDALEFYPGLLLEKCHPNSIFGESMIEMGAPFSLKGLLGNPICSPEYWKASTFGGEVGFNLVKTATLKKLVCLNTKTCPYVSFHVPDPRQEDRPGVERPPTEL

[4] = tested on: mouse mammary gland organ culture; conditions: Gerhauser et al., 2002; cited from earlier work
[5] = Bioavailability and stability of 8-isopentylnaringenin compared with 8-prenylnaringenin
human oestrogen receptor = target: T3, human oestrogen receptor (Homo sapiens, UniProt P03372); experiment: Oestrogen-inducible yeast screen (Lac-Z reporter); format: cell-based; conditions: FIG. 4, relative to 8-prenylnaringenin
T3 construct: expressed in transfected cells; host or cells: Saccharomyces cerevisiae
Procedure: The yeasts were grown in a medium containing increasing concentrations of 17β-estradiol (positive control), 8-prenylnaringenin (8-PN), 8-isopentylnaringenin (8PN-H2) or dihydro-isoxanthohumol (IsoX-H2). Expression of the Lac-Z reporter gene was spectrophotometrically measured and quantified.

T3 sequence (P03372 whole entry): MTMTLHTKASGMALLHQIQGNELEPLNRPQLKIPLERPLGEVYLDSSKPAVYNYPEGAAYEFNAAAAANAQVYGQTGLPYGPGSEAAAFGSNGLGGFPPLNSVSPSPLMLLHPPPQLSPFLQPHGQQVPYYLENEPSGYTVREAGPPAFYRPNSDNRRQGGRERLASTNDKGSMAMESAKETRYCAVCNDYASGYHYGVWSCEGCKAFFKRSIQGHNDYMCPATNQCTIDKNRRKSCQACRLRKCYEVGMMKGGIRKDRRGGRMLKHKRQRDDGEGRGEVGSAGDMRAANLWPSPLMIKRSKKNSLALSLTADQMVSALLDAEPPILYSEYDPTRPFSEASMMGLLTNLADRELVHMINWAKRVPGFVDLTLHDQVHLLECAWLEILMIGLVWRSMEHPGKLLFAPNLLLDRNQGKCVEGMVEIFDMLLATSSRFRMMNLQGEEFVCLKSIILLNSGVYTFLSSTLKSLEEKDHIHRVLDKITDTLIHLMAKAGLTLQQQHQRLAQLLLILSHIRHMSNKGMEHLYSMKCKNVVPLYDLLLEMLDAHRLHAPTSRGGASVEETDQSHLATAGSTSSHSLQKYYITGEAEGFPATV

CC(C)=CCc1c(O)cc(O)c2c1O[C@H](c1ccc(O)cc1)CC2=O [8-prenylnaringenin]
oestrogenic activity in vivo [1]: high oestrogenic activity
oestrogenic activity [2]: activity greater than that of other established phyto-oestrogens
proliferation of MCF-7 breast cancer cells ([3]; increasing concentrations of 8-prenylnaringenin (1 nM, 10 nM, 100 nM), FIG. 2): increased proliferation

COc1cc(O)c(CC=C(C)C)c(O)c1C(=O)/C=C/c1ccc(O)cc1 [xanthohumol]
oestrogenic activity of xanthohumol ([2]; no source stated): oestrogenically inactive
inhibition of cyclooxygenase-2 activity (cyclooxygenase-2): inhibition
xanthohumol to 8-prenylnaringenin weight ratio giving sufficient inhibition of proliferation ([3]; FIG. 2): at least 10
concentrations of xanthohumol that significantly inhibit the proliferation induced by 8-prenylnaringenin ([3]; MCF-7 cells, 8-prenylnaringenin 1, 10, 100 nM): at least 5 μM
concentrations of xanthohumol that stimulated the proliferation induced by 8-prenylnaringenin ([3]; MCF-7 cells, each concentration of 8-prenylnaringenin, ratio of xanthohumol to 8-prenylnaringenin below 10): < 1 µM
inhibition of cyclooxygenase-1 activity (cyclooxygenase-1): inhibition
prevention of carcinogen-induced preneoplastic lesions [4]: efficient at nanomolar concentrations

CC(C)=CCC/C(C)=C/Cc1c(O)cc(O)c2c1O[C@H](c1ccc(O)cc1)CC2=O [8-geranylnarin-genin]
oestrogenic activity [2]: only weakly oestrogenic

CC(C)CCc1c(O)cc(O)c2c1O[C@H](c1ccc(O)cc1)CC2=O [8-isopentylnaringenin]
stability compared to 8-prenylnaringenin (less easily metabolised) [5]: better stability
oestrogenic activity, times weaker than 8-prenylnaringenin (human oestrogen receptor): 3-4 times

CC(C)=CCc1c(O)cc2c(c1O)C(=O)C[C@@H](c1ccc(O)cc1)O2 [6-prenylnaringenin]
oestrogenic activity [2]: only weakly oestrogenic

COc1cc(O)c(CC=C(C)C)c2c1C(=O)CC(c1ccc(O)cc1)O2 (stereo not shown) [isoxanthohumol]
oestrogenic activity [2]: only weakly oestrogenic

CC(C)=CCc1c(O)c(CC=C(C)C)c2c(c1O)C(=O)C[C@@H](c1ccc(O)cc1)O2 [6,8-diprenylnaringenin]
oestrogenic activity [2]: only weakly oestrogenic
